{"source": "patent US12466853B2", "about": "“Selective targeting of apoptosis proteins by structurally-stabilized and/or cysteine-reactive NOXA peptides” (priority 2017, dated 2025)", "key": {"[1]": {"test_system": "ATM S1981 and CHK2 S33/35 phosphorylation in U937 cells", "test": "Phospho-signaling analysis (western blot)", "assay_type": "cell-based, human", "conditions": "2 hr", "source_text": "Cells were then washed with PBS, lysed in 1% CHAPS buffer, and the supernatant collected for protein concentration determination by BCA kit. Samples were subjected to electrophoresis and western analysis using 1:1000 dilutions of phospho-ATM (S1981, Cell Signaling, #4526), ATM (Abcam, #ab78), phospho-CHK2 (Ser33/35, Cell Signaling, #2665), CHK2 (Cell Signaling, #2662), and actin (Sigma #A1978) antibodies."}, "[2]": {"test_system": "BAX protein in U937 cells", "test": "Dynamic assessment of BAX protein levels (western blot)", "assay_type": "cell-based, human", "conditions": "5 μM", "procedure": "U937 cells were plated in 6-well plates (2×10^6 cells per well), treated with AZD0156 (5 μM), and the cells harvested and lysed at the indicated time points. Cell lysates were then subjected to electrophoresis and western blotting with BAX (Santa Cruz sc-493) and actin (Sigma #A1978) antibodies."}, "[3]": {"test_system": "U937 cells", "test": "Cell viability (CellTiter-Glo) and CalcuSyn synergy, U937", "conditions": "U937 cells (BFL-1-dependent)", "procedure": "(§1) Cell viability and caspase-3/7 activation was measured using CellTiter-Glo and Caspase-Glo 3/7 chemiluminescence reagents (Promega), respectively, and luminescence was detected by a Spectramax M5 microplate reader. Synergy of drug interactions was calculated using the CalcuSyn software (Biosoft)."}, "[4]": {"test_system": "MV4;11 cells", "test": "Cell viability (CellTiter-Glo) and CalcuSyn synergy, MV4;11", "procedure": "as §1"}, "[5]": {"biological_target": "T1, His-BFL-1ΔC (Homo sapiens, UniProt Q16548)", "T1 construct": "Recombinant anti-apoptotic BFL-1ΔC (aa 1-151) and its cysteine to serine mutants were cloned into PET17b; made in house; host or cells: Escherichia coli LOBSTR BL21(DE3)", "T1 sequence (Q16548 1-151)": "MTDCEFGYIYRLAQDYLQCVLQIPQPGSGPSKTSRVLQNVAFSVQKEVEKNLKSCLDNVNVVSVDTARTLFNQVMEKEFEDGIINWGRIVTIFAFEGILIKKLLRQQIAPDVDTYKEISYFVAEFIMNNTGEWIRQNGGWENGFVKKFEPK", "test": "Streptavidin pulldown from recombinant protein mixture, BFL-1", "assay_type": "binding", "conditions": "equimolar mixture of recombinant MCL-1, BCL-XL, BFL-1 and biotinylated SAHB, silver stain", "procedure": "WT His-BFL-1ΔC, BCL-XLΔC (tagless), and GST-MCL-1ΔNΔC (1 μM each) were combined and incubated with 3 mM DTT in PBS for thirty minutes at room temperature. Mixtures were treated with vehicle or the indicated C-terminally biotinylated NOXA SAHB (1 μM) for four hours and were then added to 30 μL PBS-washed high-capacity streptavidin (SA) agarose beads (Thermo Fisher Pierce) and incubated with rotation at room temperature for two hours. The beads were then washed three times with NP-40 lysis buffer (1% NP-40, 50 mM Tris pH 8, 100 mM NaCl, 2.5 mM MgCl2) and three times with PBS. To elute bound protein, beads were boiled for ten minutes with 10% SDS containing 10 mg/mL biotin. After elution, samples were boiled with 3×LDS and 2M DTT for twenty minutes. Gel electrophoresis using a 12% Bis-Tris gel was conducted on inputs (2%) and eluates (5 μL) and gels were developed using the Pierce silver staining kit (Thermo Fisher)."}}, "data": [{"compound": "CN(C)CCCOc1ccc(-c2ccc3ncc4c(c3c2)n(C2CCOCC2)c(=O)n4C)cn1", "note": "[AZD0156]", "values": [{"measurement": "ATM auto-phosphorylation at S1981", "setting": "[1]", "result": "dose-responsive inhibition of S1981 auto-phosphorylation"}, {"measurement": "CHK2 phosphorylation at S33/35", "setting": "[1]", "result": "potent blockade of CHK2 phosphorylation even at the lowest treatment dose"}, {"measurement": "protein level of pro-apoptotic BAX", "setting": "[2]", "result": "time-dependent increase in the protein level of pro-apoptotic BAX"}]}, {"compound": "Cc1c(-c2c(-c3ccc(F)o3)sc3ncnc(O[C@H](Cc4ccccc4OCc4ccnn4CC(F)(F)F)C(=O)O)c23)ccc(OCCN2CCN(C)CC2)c1Cl", "note": "[S63845]", "values": [{"measurement": "cytotoxicity, single agent", "setting": "[3]", "result": "no activity"}, {"measurement": "cytotoxic synergy upon co-treatment", "setting": "[4]; MV4;11 cells (not dependent on BFL-1)", "result": "synergy in combination with ATM inhibition"}, {"measurement": "cytotoxicity, single agent", "setting": "[4]; MV4;11 cells (not dependent on BFL-1, dependent on MCL-1)", "result": "single agent activity"}]}, {"compound": "*AT8LRRFGDXLNFRQ [Ac-NOXA SAHB, acetyl-capped i, i+7-stapled NOXA BH3 peptide (aa 26-40)]", "values": [{"measurement": "BFL-1 binding / pull down", "setting": "[5]", "result": "little to no interaction with BFL-1"}]}]}
